According to US10017533B2, “Cytotoxic titanium and vanadium complexes” (YISSUM RESEARCH DEVELOPMENT COMPANY OF THE HEBREW …, priority 2012, dated 2018):

Key:
HT-29 cancer cells = test: MTT cytotoxicity assay on HT-29 colon cells; assay type: cell-based, human; conditions: for IC50 / maximal inhibition HT-29: three days incubation
Method: (§1) Cytotoxicity was measured on HT-29 colon and OVCAR ovarian cells obtained from ATCC Inc. using the methylthiazolyldiphenyl-tetrazolium bromide (MTT) assay. Cells (0.6×106) in medium (contains: 1% penicillin/streptomycin antibiotics; 1% L-glutamine; 10% fetal bovine serum (FBS) and 88% medium RPMI-1640, all purchased from Biological Industries Inc.) were seeded into a 96-well plate and allowed to attach for a day. The cells were consequently treated with the reagent tested at 10 different concentrations. Solutions/dispersions of the reagents were prepared either by dissolving 8 mg of the nonformulated reagent in 200 μL of THF or by dispersing 8 mg of formulated reagent in 200 μL of medium, with further diluting to obtain the different concentrations. A total of 20 μL of the resulting system were diluted with 180 μL of medium. Consequently, 10 μL of each final system were added to each well already containing 200 μL of the above solution of cells in the medium to give final concentration of up to 200 mg/L. Control wells were treated with similar amounts of THF or medium. After a standard of 3 days incubation at 37° C. in 5% CO2 atmosphere, MTT (0.1 mg in 20 μL) was added and the cells were incubated for additional 3 hours. The MTT solution was then removed, and the cells were dissolved in 200 μL isopropanol. The absorbance at 550 nm was measured by a Bio-Tek EL-800 microplate reader spectrophotometer. Each measurement was repeated at least 3×3 times, namely, three repeats per plate, all repeated at least 3 times on different days (9 repeats altogether). IC50 values were determined by a non-linear regression of a variable slope (four parameters) model.

OVCAR-3 = test: MTT cytotoxicity assay on OVCAR-3 cells; assay type: cell-based; conditions: administered without formulations, three days incubation
Method: as §1

OVCAR cancer cells = test: MTT cytotoxicity assay on OVCAR ovarian cells; assay type: cell-based
Method: as §1, with “After a standard of 3 days incubation at 37° C. in 5% CO2 atmosphere, MTT (0.1 mg in 20 μL) was added and the cells were incubated for additional 3 hours. The MTT solution was then removed, and the cells were dissolved in 200 μL isopropanol.” left out, “Each measurement was repeated at least 3×3 times, namely, three repeats per plate, all repeated at least 3 times on different days (9 repeats altogether).” left out

[1] = tested on: multi-drug-resistant (MDR) cells HU-2; test: Cytotoxicity toward multi-drug-resistant HU-2 cells; assay type: cell-based; conditions: nanoformulated complex
[2] = Hydrolysis measurements by 1H NMR / stability in water; assay type: physicochemical; conditions: 10% D2O added to [D8]THF solution
Method: Comparative hydrolysis measurements by ^1H NMR were carried by monitoring the integration of selected signals with time following addition of 10% D2O to [D8]THF solution of the complexes. The t1/2 value for isopropoxo hydrolysis for compound 4 was ca. 100 hours, markedly higher than the value previously reported for analogous complexes of two labile ligands obtained under similar conditions (ca. 5 hours).
NMR data were recorded using AMX-400 or AMX-500 MHz Bruker spectrometer. X-ray diffraction data were obtained with a Bruker SMART APEX CCD diffractometer, running the SMART software package. After collection, the raw data frames were integrated by the SAINT software package. The structures were solved and refined using the SHELXTL software package. Hydrolysis studies by NMR were performed using a solution of the complex in [D^8]THF and adding 10% D2O. The results were verified by including p-dinitrobenzene as an internal standard.

[3] = Particle size by dynamic light scattering; assay type: physicochemical; conditions: nanoformulated complex, 0.2 wt % dispersion in water
Method: The dry powder obtained at the end of the freeze-drying process was dispersed at 0.2% in distilled water. The sample was manually shaken for 15 seconds. Particle size distribution by volume was measured at room temperature by dynamic light scattering using a Nano-ZS Zetasizer (Malvern, UK). A 633 nm wavelength laser beam was used to illuminate the sample and the light scattering was detected at 173° angle by the Non-Invasive Back-Scatter (NIBS) technology. The advantages of the backscatter detection are: (a) Ability to measure particle size at high concentration; (b) Elimination of dust and impurity effect. Size measurements of the dispersion were performed in triplicate.

[4] = administered without formulations

SMILES: [O]=[V]1[O]c2ccccc2CNCCNCc2ccccc2[O]1 [compound 63]
- IC50 (HT-29 cancer cells; [4]): 5800 ± 300 nM
- maximal inhibition HT-29 (HT-29 cancer cells; [4]): 97%
- IC50 (OVCAR-3): 4300 ± 1400 nM
- maximal inhibition OVCAR-3 (OVCAR-3): 87%

SMILES: Clc1cc(Cl)c2c(c1)CN1CCN3Cc4cc(Cl)cc(Cl)c4[O][Ti]([O]2)([O]c2c(Cl)cc(Cl)cc2C1)[O]c1c(Cl)cc(Cl)cc1C3 [compound 3]
- IC50 (OVCAR cancer cells; nanoformulated complex, three days incubation): 14000 ± 4000 nM
- cytotoxicity when measured directly on OVCAR-1 (OVCAR cancer cells; non-formulated, OVCAR-1 cells as printed): inactive
- IC50 (HT-29 cancer cells; nanoformulated complex): 12000 ± 2000 nM
- cytotoxicity when measured/administered directly on HT-29 (HT-29 cancer cells; non-formulated): inactive
- IC50 [1]: 800 ± 1000 nM
- hydrolysis observed by 1H NMR [2]: no substantial hydrolysis was observed for over a week
- Mean particle size [3]: 5.3 ± 0.3 nm

SMILES: N.N.[Cl][Pt][Cl] [Cis-platin, reference compound]
- IC50 (HT-29 cancer cells; [4]): 12200 ± 2300 nM
- maximal inhibition HT-29 (HT-29 cancer cells; [4]): 90%
- IC50 (OVCAR-3): 8800 ± 2100 nM
- maximal inhibition OVCAR-3 (OVCAR-3): 91%

SMILES: [O]=[V]12[O]c3ccccc3CNCCN(Cc3ccccc3[O]1)Cc1ccccc1[O]2 [compound 5]
- IC50 (HT-29 cancer cells; [4]): 1900 ± 600 nM
- maximal inhibition HT-29 (HT-29 cancer cells; [4]): 97%
- IC50 (OVCAR-3): 300 ± 100 nM
- maximal inhibition OVCAR-3 (OVCAR-3): 88%

SMILES: Cc1cc(C)c2c(c1)CN1Cc3cc(C)cc(C)c3[O][V](=[O])([O]2)[O]c2c(C)cc(C)cc2C1 [compound 50]
- IC50 (HT-29 cancer cells; [4]): 4600 ± 800 nM
- maximal inhibition HT-29 (HT-29 cancer cells; [4]): 96%
- IC50 (OVCAR-3): 2800 ± 500 nM
- maximal inhibition OVCAR-3 (OVCAR-3): 87%

SMILES: COc1ccc2c(c1)CNCCN1Cc3cc(OC)ccc3[O][V](=[O])([O]2)[O]c2ccc(OC)cc2C1 [compound 8]
- IC50 (HT-29 cancer cells; [4]): 700 ± 100 nM
- maximal inhibition HT-29 (HT-29 cancer cells; [4]): 94%
- IC50 (OVCAR-3): 600 ± 200 nM
- maximal inhibition OVCAR-3 (OVCAR-3): 85%

SMILES: [O]=[V]12[O]c3ccc(Cl)cc3CNCCN(Cc3cc(Cl)ccc3[O]1)Cc1cc(Cl)ccc1[O]2 [compound 7]
- IC50 (HT-29 cancer cells; [4]): 3200 nM
- maximal inhibition HT-29 (HT-29 cancer cells; [4]): 95%

SMILES: Cc1ccc2c(c1)CNCCN1Cc3cc(C)ccc3[O][V](=[O])([O]2)[O]c2ccc(C)cc2C1 [compound 6]
- IC50 (HT-29 cancer cells; [4]): 2500 ± 700 nM
- maximal inhibition HT-29 (HT-29 cancer cells; [4]): 98%
- IC50 (OVCAR-3): 300 ± 100 nM
- maximal inhibition OVCAR-3 (OVCAR-3): 90%

SMILES: CC(C)(C)Oc1ccc2c(c1)CNCCN1Cc3cc(OC(C)(C)C)ccc3[O][V](=[O])([O]2)[O]c2ccc(OC(C)(C)C)cc2C1 [compound 9]
- IC50 (HT-29 cancer cells; [4]): 2000 ± 400 nM
- maximal inhibition HT-29 (HT-29 cancer cells; [4]): 99%
- IC50 (OVCAR-3): 1300 nM
- maximal inhibition OVCAR-3 (OVCAR-3): 84%
